Common to all, as to assay: Bliss excess, mean over the matrix (fraction); higher = more synergy
In experiment [1] the test system is ACHN (Kidney Carcinoma). The gist of the method: (§1)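 Bliss excess equals the observed combination effect minus the expected value EA + EB − EA·EB, where EA and EB are the effects of each agent alone. Combination Emax is the second-highest inhibition within the matrix. Inhibition was scaled from CellTiter-Glo 2.0 luminescence, with 0 set by vehicle wells and 1 by blank wells, after 72 hours of two-drug dosing of cells plated in 1536-well plates.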

For experiment [2], the system named is PANC-04-03 (Pancreatic Carcinoma). The gist of the method:
as §1

Experiment [3] relates to SCC-15 (Oral Cavity Carcinoma). The gist of the method:
as §1

Experiment [4] deals with TE-1 (Esophageal Squamous Cell Carcinoma). The gist of the method:
as §1

The test system of experiment [5] is SU8686 (Pancreatic Carcinoma). The gist of the method:
as §1

The subject of experiment [6] is RF-48 (B-Cell Non-Hodgkin's Lymphoma). The gist of the method:
as §1

The subject of experiment [7] is NB69 (Neuroblastoma). The gist of the method:
as §1

In experiment [8] the test system is C-4-I (Cervical Carcinoma). The gist of the method: as §1
The subject of experiment [9] is NCI-H1915 (Non-Small Cell Lung Carcinoma). The gist of the method:
as §1

Experiment [10] deals with HSC-4 (Oral Cavity Carcinoma). The gist of the method: as §1
Experiment [11] concerns OVCAR-4 (Ovarian Carcinoma). The gist of the method: as §1
In experiment [12] the test system is NCI-H358 (Lung Adenocarcinoma). The gist of the method:
as §1

Experiment [13] concerns TK10 (Kidney Carcinoma). The gist of the method: as §1
Experiment [14] has as its system HGC-27 (Gastric Carcinoma). The gist of the method:
as §1

For experiment [15], the system named is OE19 (Esophageal Adenocarcinoma). The gist of the method: as §1
Experiment [16] has as its system Ca9-22 (Head and Neck Carcinoma). The gist of the method: as §1
The test system of experiment [17] is AMO-1 (Plasma Cell Myeloma). The gist of the method: as §1
Experiment [18] relates to NEC8 (Other Solid Carcinomas). The gist of the method: as §1
In experiment [19] the test system is SW13 (Other Solid Carcinomas). The gist of the method: as §1
Experiment [20] has as its system UACC-62 (Melanoma). The gist of the method:
as §1

Structures are written as SMILES.

With `CC1(C)CCC(CN2CCN(c3ccc(C(=O)NS(=O)(=O)c4ccc(NCC5CCOCC5)c([N+](=O)[O-])c4)c(Oc4cnc5[nH]ccc5c4)c3)CC2)=C(c2ccc(Cl)cc2)C1` [Venetoclax] + C[C@@H](Nc1cc(F)cc(F)c1)c1cc(C(=O)N(C)C)cc2c(=O)cc(N3CCOCC3)oc12 [AZD8186] (first compound max 1 µM, 7x7, partner max 3 µM), the Bliss excess in [1] is -0.0208; in experiment [2] it was -0.0374; in [3], -0.0348; in [4], 0.0042; in [5] it was -0.0303; in experiment [6], 0.0481. Moreover, the Bliss excess was -0.221 in experiment [7]; 0.0078 in [8]; -0.0264 in [9]; -0.0369 in [10]; -0.0186 in [11]; -0.0521 in experiment [12]. The Bliss excess was -0.0887 in experiment [13]; -0.0256 in experiment [14]; -0.0065 in [15]; -0.0104 in experiment [16]; -0.0065 in experiment [17]; -0.0197 in [18]. For the same molecule, the values for the Bliss excess in experiment [19] and in [20] were -0.0263 and 0.0118, respectively.

As to `CC1(C)CCC(CN2CCN(c3ccc(C(=O)NS(=O)(=O)c4ccc(NCC5CCOCC5)c([N+](=O)[O-])c4)c(Oc4cnc5[nH]ccc5c4)c3)CC2)=C(c2ccc(Cl)cc2)C1` [Venetoclax] + Cc1cc2ncnn2cc1Nc1ncc2c(n1)n(C1CCOCC1)c(=O)n2C [AZD7648] (first compound max 1 µM, 7x7, partner max 10 µM), the Bliss excess in experiment [1] was -0.0244; in experiment [2], -0.0617; in experiment [3], -0.0303; in [4], -0.0451; in [5], -0.0195; in [6], -0.0106. Besides, the Bliss excess in experiment [7] was 0.0069; in experiment [8], 0.0131; in experiment [9] it was 0.0029; in experiment [10], -0.058; in experiment [11], -0.0163; in experiment [12], -0.0207. The Bliss excess is -0.102 in experiment [13]; -0.0261 in [14]; -0.0253 in [15]; -0.0241 in experiment [16]; -0.0116 in [17]; 0.0282 in [18]. Besides, the Bliss excess in experiment [19] is 0.0127; in experiment [20] it was -0.0424.

With `CC1(C)CCC(CN2CCN(c3ccc(C(=O)NS(=O)(=O)c4ccc(NCC5CCOCC5)c([N+](=O)[O-])c4)c(Oc4cnc5[nH]ccc5c4)c3)CC2)=C(c2ccc(Cl)cc2)C1` [Venetoclax] + Cn1cnc2c(F)c(Nc3ccc(Br)cc3Cl)c(C(=O)NOCCO)cc21 [Selumetinib] (first compound max 1 µM, 7x7, partner max 3 µM), the Bliss excess in [1] was -0.0151; in experiment [2] it was -0.0633; in experiment [3], -0.0428; in [4] it was 0.0008; in [5], -0.0792; in [6], -0.0034. Also, the Bliss excess was 0.0179 in experiment [7]; -0.0299 in experiment [8]; -0.0541 in [9]; -0.0211 in experiment [10]; -0.02 in experiment [11]; -0.024 in experiment [12]. The Bliss excess in [13] is -0.109; in experiment [14], -0.0178; in experiment [15] it was -0.0484; in experiment [16], 0.0054; in [17], 0.0092; in experiment [18], -0.0151. In addition, the Bliss excess in experiment [19] is 0.0137; in experiment [20] it was -0.0235.

The values above are taken from the supplement of paper PMC11061612.
